Article PMC10947113, “A Bivalent Activatable Fluorescent Probe for Screening and Intravital Imaging of Chemotherapy‐Induced Cancer Cell Death” (Angewandte Chemie (Weinheim an Der Bergstrasse, Germany), 2021)

Test system: MMTV-PyMT mammary gland tumours
Experiment: Intravital imaging and ex vivo quantification of cisplatin-induced apoptosis
Type: in vivo, mouse
From the text: Optical intravital imaging is increasingly used for the preclinical evaluation of anticancer drugs in vivo. Although imaging modalities like computed tomography, positron emission tomography and magnetic resonance imaging can help to visualise whole intact organs in a non‐invasive manner,[26] they lack the spatiotemporal resolution needed to study dynamic interactions between individual tumour and stromal cells. This feature is critical to understand the mechanism of action of anticancer drugs and how they can affect interactions between cancer cells and immune cells in the tumour microenvironment.[27] Intravital imaging heavily relies on the acquisition of fluorescence signals using multiphoton microscopy, which provides cellular resolution with deep tissue penetration (≈500 μm) and minimal photodamage.[28] […] First, we analysed the chemical stability of Apotracker Red for in vivo studies by incubating the probe in mouse serum. […] When primary tumours measured around 0.5–1 cm in diameter, we administered cisplatin intraperitoneally (10 mg kg^−1). […]
were centrifuged (300 g, 5 min, r.t.), washed once with PBS before addition of 0.05% Trypsin, 0.02% ethylenediaminetetraacetic acid (EDTA) in Hank’s balanced salt solution (HBSS) and incubation at 37°C for 5 min. […] Histograms and mean fluorescence intensities of apoptotic cells were measured on a 5L LSR flow cytometer under the following […]

N.N.[Cl][Pt][Cl] [cisplatin]
Apotracker Red fluorescence in tumours of cisplatin-treated mice (cancer cell death) (MMTV-PyMT;ACTB-ECFP mice, cisplatin 10 mg kg^-1 intraperitoneally, Apotracker Red 650 ng i.v. after 72 h, two-photon intravital imaging): strong red fluorescent signals indicating cancer cell death induced by the drug
relative percentages of apoptotic cells in tumours, ex vivo quantification (cisplatin 10 μg g^-1 i.p., day 3, at least 5 tumour areas per mouse, mean±SEM, one-way ANOVA p<0.05): significant differences
